Test results from US20070208087A1, “Compounds, compositions and methods for the treatment of inflammatory diseases” (priority 2001, published 2007).
Where “and” joins values, the source holds several entries; their conditions need not be identical. Equal values may be shown once.

Assays:
Assay type in all cases: cell-based
microglia = assay: Ranking of NO release inhibition (Example 12); conditions: ranking table
Excerpt: The bis- and tris-dihydroxyaryl compounds were ranked in order of effectiveness for the inhibition of NO release as set out in Table 8.

[1] = test system: EOC 13.31 microglia cells; assay: Inhibition of NO release from microglia following 24 hours pretreatment (Example 10); conditions: for inhibition at 50 µM: Microglia
How it was run: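 Confluent EOC 13.31 cells pretreated 24 hours with 50 μM compound (from 10 mM DMSO stock), then stimulated with 10 μg/ml LPS plus 10 ng/ml IFNγ without media change. After a further 48 hours, NO release was measured by Griess Reaction.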

[2] = test system: TNF-α release from microglia; assay: TNF-α release from LPS/IFNγ stimulated microglia, TNF-α ELISA (Example 11); conditions: 50 uM compound, TNF-α release, 10 ug LPS and 10 ng IFNγ, 24 hours
Method: Also, bis- and tris-dihydroxyaryl compound's ability to inhibit NO release strongly supports their interference with the inflammatory cascade and utlimately inhibition of inflammation. Microglia cells were plated at 1×10^5 cells/ml into 96 well plates. At day three, they were treated with 50 μM bis- and tris-dihydroxyaryl compound for 1 hour and then exposed to 10 μg/ml LPS+10 ng/ml IFNγ for 24 hours. 10 μl of media was removed and stored at −80° until TNF-α ELISA assays were performed. Samples were diluted 1:50 before running the TNF-α ELISA (kit commercially available from Sigma).

[3] = test system: EOC 13.31 microglia cells; assay: NO release inhibition in LPS/IFNγ stimulated microglia, concurrent treatment, Griess reaction at 24 hours (Example 6); conditions: for inhibition at 50 µM: Microglia; for OD Values: Griess; for OD Values / NO release: single replicates
Method: The purpose of this experiment was to screen compounds 3, 4, 21, 26, 51, 52, 66, and 78 for their ability to inhibit Nitric oxide release from microglia. […] EOC 13.31 microglia cells were plated into 96 well plates for 24 hours. Confluent cells were treated with 50 μM of the bis- and tris-dihydroxyaryl compounds either with or without stimulation at 1 pg/ml LPS, and 1 ng/ml IFNγ. NO release was measured at 24 hours using the Griess reaction which is a spectrophotometric measure of NO release (reagents from Promega).

Microglial cells = assay: Dose response inhibition of NO release from microglia, 0.75-200 μM (Example 8); conditions: for Avg % Inhibition / μM NO release Avg / % inhibition / OD values (printed under head μM NO release) / μM NO release: 48 hours; for % inhibition / OD values (printed under head μM NO release) / μM NO release: single replicates
Method: This experiment was designed to determine dose response inhibition of NO release from microglia by bis- and tris-dihydroxyaryl compounds when stimulated with LPS/IFNγ. […] This experiment is designed to determine a dose response for various bis- and tris-dihydroxyaryl compounds. Microglial cells were plated into 96 well plates at 1×10^5 cells/ml. […] The doses tested were: 0.75 μM, 1.56 μM, 3.125 μM, 6.25 μM, 12.5 μM, 25 μM, 50 μM, 100 μM and 200 μM. Nitric oxide release was measured after 48 hours using the Griess reaction.

[4] = test system: EOC 13.31 microglial cells; assay: NO release inhibition screen in LPS/IFNγ stimulated microglia, Griess reaction at 48 hours (Example 7)
Method: In this experiment, additional bis- and tris-dihydroxyaryl compounds were screened for their ability to inhibit nitric oxide release from microglial cells. Microglial cells stimulated with LPS/IFNγ release nitric oxide. […] This is a continuation of screening experiments. EOC 13.31 microglial cells were plated into 96 well plates. At 24 hours and at confluency, cells were treated with 10 μg/ml LPS/10 ng/ml IFNγ+50 uM bis- and tris-dihydroxyaryl compounds.

[5] = 50 uM pretreatment 24 hours, then LPS/IFNγ 48 hours, single replicates
[6] = Compound + LPS/IFNγ, 50 μM, 24 hours
[7] = Compound Only (without LPS/IFNγ), 50 μM, 24 hours
[8] = 50 uM + 10 μg/ml LPS/10 ng/ml IFNγ, 48 hours
[9] = 50 uM + 10 μg/ml LPS/10 ng/ml IFNγ, 48 hours, single replicates

O=C(NCc1ccc(O)c(O)c1)c1ccc(O)c(O)c1 [Compound 52, 3,4-dihydroxybenzoic acid 3,4-dihydroxybenzylamide]
inhibition at 50 µM (microglia; Microglia): 13%
% inhibition [1, 5]: 80.39% and 81.34%
inhibition at 50 µM ([1]; 50 uM pretreatment 24 hours, then LPS/IFNγ 48 hours, read-out: Avg % Inhibition): 80%
inhibition at 50 µM ([1]; 50 uM pretreatment 24 hours, then LPS/IFNγ 48 hours, single replicates, read-out: % inhibition): 78.2%
inhibition at 50 µM ([1]; 50 μM pretreatment, read-out: inhibition of NO release following pretreatment): > 75%
% inhibition ([2]; individual replicates, 50 µM): −12.27% and −26.58% and −30.69%
inhibition at 50 µM ([2]; Microglia, 24 h, read-out: Avg % Inhibition): -23.2%
NO release, Avg [3, 6]: 16.2840 µM
NO release, Avg [3, 7]: -0.0417 µM
inhibition at 50 µM ([3]; Compound + LPS/IFNγ, 24 hours, read-out: % inhibition of NO release): 12.6%
inhibition at 50 µM ([3]; Table 2 summary, LPS/IFNγ, 24 hours, read-out: % Inhibition (summary of inhibition of NO release)): 12.6%

Oc1ccc(Cc2ccc(O)c(O)c2)cc1O [Compound 3, 3,4,3′,4′-tetrahydroxydiphenylmethane]
% Inhibition at 50 μM (NO release) (microglia): 30%
Avg % Inhibition ([1]; 50 uM pretreatment 24 hours, then LPS/IFNγ 48 hours): 79.87%
% inhibition [1, 5]: 86.74% and 69.63% and 83.24%
OD values (printed under head μM NO release) [1, 5]: 0.206 and 0.163 and 0.153
μM NO release [1, 5]: 6.000 µM and 3.313 µM and 2.621 µM
inhibition of NO release, in words ([3]; 50 μM, LPS/IFNγ stimulated microglial cells): very effective inhibitors of NO release
% inhibition of NO release [3, 6]: 48.8%
NO release, Avg [3, 6]: 9.5299 µM
OD Values [3, 6]: 0.094 and 0.137 and 0.145
NO release [3, 6]: 6.0450 µM and 10.8259 µM and 11.7188 µM
NO release, Avg [3, 7]: 1.0417 µM
OD Values [3, 7]: 0.053 (2×) and 0.054
NO release [3, 7]: 1.0000 uM (2×) and 1.1250 uM
% Inhibition (summary of inhibition of NO release) ([3]; Table 2 summary, 50 μM, LPS/IFNγ, 24 hours): 48.8%
Avg % Inhibition (Microglial cells; dose 0.75 μM): −8.947%
μM NO release Avg (Microglial cells; dose 0.75 μM): 21.563 µM
% inhibition (Microglial cells; dose 0.75 μM): −3.42% and −6.58% and −16.84%
OD values (printed under head μM NO release) (Microglial cells; dose 0.75 μM): 0.2 and 0.183 and 0.187
μM NO release (Microglial cells; dose 0.75 μM): 23.125 µM and 20.469 µM and 21.094 µM
μM NO release Avg (Microglial cells; dose 1.56 μM): 19.792 µM
% inhibition (Microglial cells; dose 1.56 μM): 3.68% (2×) and −7.37%
OD values (printed under head μM NO release) (Microglial cells; dose 1.56 μM): 0.188 and 0.174 (2×)
μM NO release (Microglial cells; dose 1.56 μM): 21.250 μM and 19.063 μM (2×)
Avg % Inhibition (Microglial cells; dose 3.125 μM): 0.789%
μM NO release Avg (Microglial cells; dose 3.125 μM): 19.635 µM
% inhibition (Microglial cells; dose 3.125 μM): 2.89% and 5.26% and −5.79%
OD values (printed under head μM NO release) (Microglial cells; dose 3.125 μM): 0.186 and 0.175 and 0.172
μM NO release (Microglial cells; dose 3.125 μM): 20.938 µM and 19.219 µM and 18.750 µM
Avg % Inhibition (Microglial cells; dose 6.25 μM): 7.368%
μM NO release Avg (Microglial cells; dose 6.25 μM): 18.333 µM
% inhibition (Microglial cells; dose 6.25 μM): 10.79% and 10.00% and 1.32%
OD values (printed under head μM NO release) (Microglial cells; dose 6.25 μM): 0.177 and 0.165 and 0.166
μM NO release (Microglial cells; dose 6.25 μM): 19.531 µM and 17.656 µM and 17.813 µM
Avg % Inhibition (Microglial cells; dose 12.5 μM): 6.579%
μM NO release Avg (Microglial cells; dose 12.5 μM): 18.490 µM
% inhibition (Microglial cells; dose 12.5 μM): 10.00% and 2.89% and 6.84%
OD values (printed under head μM NO release) (Microglial cells; dose 12.5 μM): 0.17 and 0.166 and 0.175
μM NO release (Microglial cells; dose 12.5 μM): 18.438 µM and 17.813 µM and 19.219 µM
Avg % Inhibition (Microglial cells; dose 25 μM): 14.737%
μM NO release Avg (Microglial cells; dose 25 μM): 16.875 µM
% inhibition (Microglial cells; dose 25 μM): 22.63% and 10.00% and 11.58%
OD values (printed under head μM NO release) (Microglial cells; dose 25 μM): 0.164 and 0.15 and 0.166
μM NO release (Microglial cells; dose 25 μM): 17.500 µM and 15.313 µM and 17.813 µM
Avg % Inhibition (Microglial cells; dose 50 μM): 47.368%
μM NO release Avg (Microglial cells; dose 50 μM): 10.417 µM
% inhibition (Microglial cells; dose 50 μM): 48.68% and 46.32% and 47.11%
OD values (printed under head μM NO release) (Microglial cells; dose 50 μM): 0.119 and 0.117 and 0.12
μM NO release (Microglial cells; dose 50 μM): 10.469 µM and 10.156 µM and 10.625 µM
Avg % Inhibition (Microglial cells; dose 100 μM): 62.368%
μM NO release Avg (Microglial cells; dose 100 μM): 7.448 µM
% inhibition (Microglial cells; dose 100 μM): 64.47% and 60.53% and 62.11%
OD values (printed under head μM NO release) (Microglial cells; dose 100 μM): 0.1 and 0.097 and 0.102
μM NO release (Microglial cells; dose 100 μM): 7.500 µM and 7.031 µM and 7.813 µM
Avg % Inhibition (Microglial cells; dose 200 μM): 67% and 67.105%
μM NO release Avg (Microglial cells; dose 200 μM): 6.510 µM
% inhibition (Microglial cells; dose 200 μM): 68.42% and 66.84% and 66.05%
OD values (printed under head μM NO release) (Microglial cells; dose 200 μM): 0.095 and 0.092 and 0.094
μM NO release (Microglial cells; dose 200 μM): 6.719 µM and 6.250 µM and 6.563 µM
inhibition of NO release, in words (Microglial cells; dose response 0.75-200 μM): effective inhibitors of NO release
Avg. % Inhibition [4, 8]: 96.40%
μM NO release Avg [4, 8]: 1.000 µM
OD values (printed under head μM NO release) [4, 9]: 0.064 and 0.055 and 0.062
μM NO release [4, 9]: 1.393 µM and 0.429 µM and 1.179 µM
% inhibition ([4]; 50 uM + 10 μg/ml LPS/10 ng/ml IFNγ, 48 hours, single replicates, 50 µM): 98.46% and 95.75% and 94.98%
inhibition of NO release, in words ([4]; 50 uM, LPS/IFNγ stimulated microglia): effective inhibitors of NO release
